Test results taken from ChEMBL document CHEMBL3272271, “Folate antagonists. 13. 2,4-Diamino-6-](alpha,alpha,alpha-trifluoro-m-tolyl)thio]quinazoline and related 2,4-diamino-6-[(phenyl- and naphthyl)thio]quinazolines, a unique class of antimetabolites with extraordinary antimalarial and antibacterial effects” (J Med Chem, 1978).
Values after ≈ are worked out from the molar mass of the structure shown. Active and inactive are the calls of the source. The calls are words filed in the database; no cut-off is given here.

What was measured:
Plasmodium berghei [1] = assay: Antimalarial activity against Plasmodium berghei infected in mouse assessed as increase in mean survival days of host at 20 mg/kg, sc administered 72 hrs after infection relative to control; format: functional; conditions: route subcutaneous
Enterococcus faecalis = assay: Antibacterial activity against Streptococcus faecalis MGH-2 by gradient plate test; format: functional
Plasmodium berghei [2] = assay: Antimalarial activity against Plasmodium berghei infected in mouse assessed as increase in mean survival days of host at 10 mg/kg, sc administered 72 hrs after infection relative to control; format: functional; conditions: route subcutaneous
Plasmodium gallinaceum [3] = assay: Antimalarial activity against sporozoite-induced Plasmodium gallinaceum infected in white leghorn chicken assessed as disease cure from parasite infection at 240 mg/kg, sc administered 72 hrs after infection; format: functional, organism-based; design: dose 240 mg/kg
Plasmodium berghei [4] = assay: Antimalarial activity against Plasmodium berghei infected in mouse assessed as disease cure from parasite infection at 640 mg/kg, sc administered 72 hrs after infection; format: functional, organism-based; design: dose 640 mg/kg
Staphylococcus aureus [5] = assay: Antibacterial activity against drug-resistant Staphylococcus aureus S18713 by gradient plate test; format: functional
Plasmodium berghei [6] = assay: Antimalarial activity against Plasmodium berghei infected in mouse assessed as increase in mean survival days of host at 160 mg/kg, sc administered 72 hrs after infection relative to control; format: functional; conditions: route subcutaneous
Plasmodium berghei [7] = assay: Antimalarial activity against Plasmodium berghei infected in mouse assessed as increase in mean survival days of host at 40 mg/kg, sc administered 72 hrs after infection relative to control; format: functional; conditions: route subcutaneous
Plasmodium berghei [8] = assay: Antimalarial activity against Plasmodium berghei infected in mouse assessed as disease cure from parasite infection at 320 mg/kg, sc administered 72 hrs after infection; format: functional, organism-based; design: dose 320 mg/kg
Pseudomonas aeruginosa = assay: Antibacterial activity against Pseudomonas aeruginosa 28 by gradient plate test; format: functional
Plasmodium gallinaceum [9] = assay: Antimalarial activity against sporozoite-induced Plasmodium gallinaceum infected in white leghorn chicken assessed as increase in mean survival days of host at 15 mg/kg, sc administered 72 hrs after infection relative to control; format: functional; conditions: route subcutaneous
Staphylococcus aureus [10] = assay: Antibacterial activity against Staphylococcus aureus UC-96 by gradient plate test; format: functional
Plasmodium gallinaceum [11] = assay: Antimalarial activity against sporozoite-induced Plasmodium gallinaceum infected in white leghorn chicken assessed as disease cure from parasite infection at 30 mg/kg, sc administered 72 hrs after infection; format: functional, organism-based; design: dose 30 mg/kg
Shigella sonnei = assay: Antibacterial activity against Shigella sonnei C-10 by gradient plate test; format: functional
Plasmodium gallinaceum [12] = assay: Antimalarial activity against sporozoite-induced Plasmodium gallinaceum infected in white leghorn chicken assessed as disease cure from parasite infection at 15 mg/kg, sc administered 72 hrs after infection; format: functional, organism-based; design: dose 15 mg/kg
Plasmodium gallinaceum [13] = assay: Antimalarial activity against sporozoite-induced Plasmodium gallinaceum infected in white leghorn chicken assessed as disease cure from parasite infection at 120 mg/kg, sc administered 72 hrs after infection; format: functional, organism-based; design: dose 120 mg/kg
Plasmodium berghei [14] = assay: Antimalarial activity against Plasmodium berghei infected in mouse assessed as increase in mean survival days of host at 80 mg/kg, sc administered 72 hrs after infection relative to control; format: functional; conditions: route subcutaneous
Plasmodium berghei [15] = assay: Antimalarial activity against Plasmodium berghei infected in mouse assessed as disease cure from parasite infection at 160 mg/kg, sc administered 72 hrs after infection; format: functional, organism-based; design: dose 160 mg/kg
Plasmodium berghei [16] = assay: Antimalarial activity against Plasmodium berghei infected in mouse assessed as disease cure from parasite infection at 80 mg/kg, sc administered 72 hrs after infection; format: functional, organism-based; design: dose 80 mg/kg
Plasmodium gallinaceum [17] = assay: Antimalarial activity against sporozoite-induced Plasmodium gallinaceum infected in white leghorn chicken assessed as disease cure from parasite infection at 60 mg/kg, sc administered 72 hrs after infection; format: functional, organism-based; design: dose 60 mg/kg
Plasmodium gallinaceum [18] = assay: Antimalarial activity against sporozoite-induced Plasmodium gallinaceum infected in white leghorn chicken assessed as disease cure from parasite infection at 480 mg/kg, sc administered 72 hrs after infection; format: functional, organism-based; design: dose 480 mg/kg
[19] = system: Mycobacterium tuberculosis; assay: Antibacterial activity against Mycobacterium tuberculosis H37Ra by gradient plate test; format: functional
Escherichia coli = assay: Antibacterial activity against Escherichia coli Vogel by gradient plate test; format: functional
Plasmodium berghei [20] = assay: Antimalarial activity against Plasmodium berghei infected in mouse assessed as disease cure from parasite infection at 40 mg/kg, sc administered 72 hrs after infection; format: functional, organism-based; design: dose 40 mg/kg
Mus musculus = assay: Toxicity in Plasmodium berghei infected mouse assessed as mortality at 640 mg/kg, sc administered 72 hrs after infection measured after 2 to 5 days; format: organism-based; design: dose 640 mg/kg, route subcutaneous; conditions: in vivo
Plasmodium gallinaceum [21] = assay: Antimalarial activity against sporozoite-induced Plasmodium gallinaceum infected in white leghorn chicken assessed as increase in mean survival days of host at 30 mg/kg, sc administered 72 hrs after infection relative to control; format: functional; conditions: route subcutaneous
Plasmodium berghei [22] = assay: Antimalarial activity against Plasmodium berghei infected in mouse assessed as increase in mean survival days of host at 2.5 mg/kg, sc administered 72 hrs after infection relative to control; format: functional; conditions: route subcutaneous
Plasmodium berghei [23] = assay: Antimalarial activity against Plasmodium berghei infected in mouse assessed as increase in mean survival days of host at 5 mg/kg, sc administered 72 hrs after infection relative to control; format: functional; conditions: route subcutaneous

Nc1nc(N)c2cc(Sc3ccc(O)cc3)ccc2n1
MST (Plasmodium berghei [1]): 6.3 days | MIC (Enterococcus faecalis): < 0.25 µg/mL | MST (Plasmodium berghei [2]): 2.9 days | Activity (Plasmodium gallinaceum [3]): Active | Activity (Plasmodium berghei [4]): Active | MIC (Staphylococcus aureus [5]): < 0.25 µg/mL | MST (Plasmodium berghei [6]): 13.6 days | MST (Plasmodium berghei [7]): 11.9 days | Activity (Plasmodium berghei [8]): Active | MIC (Pseudomonas aeruginosa): 20 µg/mL (≈ 70.3 µM) | MST (Plasmodium gallinaceum [9]): 4.7 days | MIC (Staphylococcus aureus [10]): < 0.25 µg/mL | Activity (Plasmodium gallinaceum [11]): Active | MIC (Shigella sonnei): 15 µg/mL (≈ 52.8 µM) | Activity (Plasmodium gallinaceum [12]): Active | Activity (Plasmodium gallinaceum [13]): Active | MST (Plasmodium berghei [14]): 10.9 days | Activity (Plasmodium berghei [15]): Active | Activity (Plasmodium berghei [16]): Active | Activity (Plasmodium gallinaceum [17]): Active | Activity (Plasmodium gallinaceum [18]): Active | MIC [19]: > 25 µg/mL | MIC (Escherichia coli): 2.5 µg/mL (≈ 8.79 µM)

Nc1nc(N)c2c(Cl)c(Sc3ccc(F)cc3)ccc2n1
MST (Plasmodium berghei [1]): 6.9 days | MIC (Enterococcus faecalis): < 0.25 µg/mL | Activity (Plasmodium berghei [4]): Active | MIC (Staphylococcus aureus [5]): < 0.25 µg/mL | MST (Plasmodium berghei [7]): 15.6 days | Activity (Plasmodium berghei [8]): Active | MIC (Pseudomonas aeruginosa): > 25 µg/mL | Activity (Plasmodium berghei [20]): Active | MIC (Staphylococcus aureus [10]): < 0.25 µg/mL | MIC (Shigella sonnei): < 0.25 µg/mL | Activity (Plasmodium berghei [15]): Active | Activity (Plasmodium berghei [16]): Active | MIC [19]: 5 µg/mL (≈ 15.6 µM) | MIC (Escherichia coli): < 0.25 µg/mL | Activity (Mus musculus): Toxic

Nc1nc(N)c2cc(Sc3c(F)c(F)cc(F)c3F)ccc2n1
MST (Plasmodium berghei [1]): 2.7 days | MIC (Enterococcus faecalis): < 0.25 µg/mL | MST (Plasmodium berghei [2]): 0.5 days | Activity (Plasmodium gallinaceum [3]): Active | MST (Plasmodium gallinaceum [21]): 2.7 days | Activity (Plasmodium berghei [4]): Active | MIC (Staphylococcus aureus [5]): < 0.25 µg/mL | MST (Plasmodium berghei [6]): 14.9 days | MST (Plasmodium berghei [7]): 6.1 days | MST (Plasmodium berghei [22]): 0.3 days | Activity (Plasmodium berghei [8]): Active | MIC (Pseudomonas aeruginosa): > 25 µg/mL | MST (Plasmodium gallinaceum [9]): 1.7 days | MST (Plasmodium berghei [23]): 0.3 days | MIC (Staphylococcus aureus [10]): < 0.25 µg/mL | Activity (Plasmodium gallinaceum [11]): Active | MIC (Shigella sonnei): 15 µg/mL (≈ 44.1 µM) | Activity (Plasmodium gallinaceum [12]): Active | Activity (Plasmodium gallinaceum [13]): Active | MST (Plasmodium berghei [14]): 8.9 days | Activity (Plasmodium berghei [15]): Active | Activity (Plasmodium berghei [16]): Active | Activity (Plasmodium gallinaceum [17]): Active | Activity (Plasmodium gallinaceum [18]): Active | MIC (Escherichia coli): 2 µg/mL (≈ 5.88 µM)
